This is an account of results in US8063048B2, “Acetylenyl-pyrazolo-pyrimidine derivatives” (Hoffmann-La Roche Inc., priority 2005, dated 2011).

The structures appear in SMILES notation.

Data set [1] has as its target T1, mGlu2 receptor (Rattus norvegicus, UniProt P31421).
T1 construct: expressed in transfected cells; membranes prepared
In words: [3H]-LY354740 binding on mGlu2 transfected CHO cell membranes. The settings on record: inhibition of 10 nM [3H]-LY354740 binding, membranes of CHO cells transfected with rat mGlu2, room temperature, 1 hour. The source says: [^3H]-LY354740 Binding on mGlu2 Transfected CHO Cell Membranes. Transfection and Cell Culture
cDNA encoding the rat mGlu2 receptor protein in pBluescript II was subcloned into the eukaryotic expression vector pcDNA I-amp from Invitrogen Ltd (Paisley, UK). This vector construct (pcD1mGR^2) was co-transfected with a psvNeo plasmid encoding the gene for neomycin resistance, into CHO cells by a modified calcium phosphate method described by Chen & Okayama (1988). The cells were maintained in Dulbecco's Modified Eagle medium with reduced L-glutamine (2 mM final concentration) and 10% dialyzed fetal calf serum from Gibco-Invitrogen (Carlsbad, Calif., USA). Selection was made in the presence of G-418 (1000 ug/mL final) and MCPG[…]. Clones were identified by reverse transcription of 5 μg total RNA, followed by PCR using mGlu2 receptor specific primers 5′-[…]-3′ and 5′-[…]-3′ in 60 mM Tris HCl (pH 10), 15 mM (NH4)2SO4, 2 mM MgCl2, 25 units/mLTaq Polymerase with 30 cycles annealing at 60° C. for 1 min., extention at 72° C. for 30 s, and 1 min. 95° C. denaturation.
Cells, cultured as above, were harvested and washed three times with cold PBS and frozen at −80° C. The pellet was resuspended in cold 20 mM HEPES-NaOH buffer containing 10 mM EDTA (pH 7.4) and homogenized with a polytron (Kinematica, AG, Littau, Switzerland) for 10 s at 10 000 rpm. After centrifugation for 30 min. at 4° C., the pellet was washed once with the same buffer, and once with cold 20 mM HEPES-NaOH buffer containing 0.1 mM EDTA, (pH 7.4). Protein content was measured using the micro BCA method from Pierce-Perbio (Rockford, Ill., USA) using bovine serum albumin as standard.
After thawing, the membranes were resuspended in cold 50 mM Tris-HCl buffer containing 2 mM MgCl2 (pH 7) (binding buffer). The final concentration of the membranes in the assays was 25 μg protein/ml. Inhibition experiments were performed with membranes incubated with 10 nM [^3H]-LY354740 at room temperature, for 1 hour, in presence of various concentrations of the compound to be tested. Following the incubations, membranes were filtered onto Whatmann GF/B glass fiber filters and washed 5 times with cold binding buffer. Non specific binding was measured in the presence of 10 μM DCG IV. After transfer of the filters into plastic vials containing 10 mL of Ultima-gold scintillation fluid from Perkin-Elmer (Boston, Mass., USA), the radioactivity was measured by liquid scintillation in a Tri-Carb 2500 TR counter (Packard, Zürich, Switzerland).
The inhibition curves were fitted with a four parameter logistic equation giving IC50 values, and Hill coefficients.

A word on the Ki: it is a measure of affinity in units of concentration, obtained from inhibition or displacement. A word on the melting point: it is the temperature of the solid-liquid transition.

T1 sequence (P31421 19-872): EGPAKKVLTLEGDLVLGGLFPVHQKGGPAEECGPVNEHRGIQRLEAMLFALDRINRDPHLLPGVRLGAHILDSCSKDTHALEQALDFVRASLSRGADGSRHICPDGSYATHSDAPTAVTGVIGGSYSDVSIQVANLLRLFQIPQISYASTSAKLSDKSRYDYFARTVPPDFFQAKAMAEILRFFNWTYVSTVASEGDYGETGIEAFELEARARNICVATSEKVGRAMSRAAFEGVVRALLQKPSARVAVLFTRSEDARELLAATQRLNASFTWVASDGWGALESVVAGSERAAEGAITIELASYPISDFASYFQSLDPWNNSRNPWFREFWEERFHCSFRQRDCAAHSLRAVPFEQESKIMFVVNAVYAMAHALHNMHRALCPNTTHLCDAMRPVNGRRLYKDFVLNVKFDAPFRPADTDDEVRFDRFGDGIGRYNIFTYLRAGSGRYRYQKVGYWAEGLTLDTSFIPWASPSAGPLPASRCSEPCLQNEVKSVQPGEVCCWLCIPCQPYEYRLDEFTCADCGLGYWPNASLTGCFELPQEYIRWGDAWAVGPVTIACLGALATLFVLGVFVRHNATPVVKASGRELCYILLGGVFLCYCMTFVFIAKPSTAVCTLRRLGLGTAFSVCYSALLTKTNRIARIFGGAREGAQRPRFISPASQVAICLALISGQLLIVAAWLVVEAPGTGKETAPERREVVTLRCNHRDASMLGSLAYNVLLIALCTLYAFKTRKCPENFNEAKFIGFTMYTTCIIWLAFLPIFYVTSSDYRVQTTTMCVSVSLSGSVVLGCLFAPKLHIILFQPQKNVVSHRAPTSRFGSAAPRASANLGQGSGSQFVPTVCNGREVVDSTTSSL

`NS(=O)(=O)c1cc(C#Cc2cnc3c(C(F)(F)F)cc(-c4ccc(C(F)(F)F)cc4)cn23)c(F)cc1F` [Example 180, 2,4-Difluoro-5-[8-trifluoromethyl-6-(4-trifluoromethyl-phenyl)-imidazo[1,2-a]pyridin-3-ylethynyl]-benzenesulfonamide] came in with a melting point of 306 to 307 °C. This compound also returned a Ki in data set [1] of 9 nM.
